Measurements published in US20240034753A1, “THERAPEUTIC PEPTIDES” (COHBAR, INC., priority 2020, published 2024).
Square brackets hold non-standard residues; d marks the D form. Peptide text beside a SMILES is read from it. Nle = CCCC[C@H](N)C(=O)O

Tests used:
[1] = system: A172 human brain glioblastoma cell line; experiment: Caspase-Glo 3/7 assay of caspase 3/7 activity in cultured cells; type: cell-based; settings: peptide 10 μM, 18-20 hours, relative to 0.1% DMSO control
Procedure: The effect of the peptides on cell death/survival can be assessed using a […] assay in cultured cells. Peptides were dissolved at 10 mM in DMSO as stock solutions for use at a final concentration of 10 μM. […] Caspase-Glo 3/7 Assay Reagent was purchased from Promega (Madison, WI). A172 human brain glioblastoma cell line was purchased from American Type Culture Collection (Manassas, VA). A172 cells were grown in DMEM supplemented with 10% FBS with 100 IU/ml penicillin and 100 μg/ml streptomycin. Cultures were maintained at 37° C. in a humidified atmosphere of 5% CO2/95% air. A172 cells were seeded at 8,000 cells per well on 96-well plates. […] Caspase 3/7 activity was determined using a Caspase-Glo 3/7 Assay kit (Promega) according to the manufacturer's instructions. Luminescence for each sample well on the plate was measured using a Cytation 3 plate reader (BioTek, Winooski, VT). Activity was calculated relative to 0.1% DMSO control.

A172 Cells = experiment: PrestoBlue cell viability assay; type: cell-based; settings: human, 10 μM
Procedure: The effect of the peptides on cell viability can be assessed in cultured cells using suitable assay of viability such as the PrestoBlue® assay (Thermo Fisher Scientific, Waltham, MA). Peptides were initially prepared as 10 mM stock in DMSO and tested at a final concentration of 10 μM (0.1% DMSO). […] PrestoBlue Assay Reagent was purchased from Thermo Fisher Scientific. A172 human brain glioblastoma cell line was purchased from American Type Culture Collection (Manassas, VA). A172 cells were grown in DMEM supplemented with 10% FBS with 100 IU/ml penicillin and 100 μg/ml streptomycin. Cultures were maintained at 37° C. in a humidified atmosphere of 5% CO2/95% air. A172 cells were seeded at 8,000 cells per well on 96-well plates. […] Cell viability was determined using a PrestoBlue Assay reagent […] according to the manufacturer's instructions. Absorption for each sample well on the plate was measured using a Cytation 3 plate reader at 560 nm and 590 nm (BioTek, Winooski, VT). Activity was calculated relative to 0.1% DMSO untreated control. Treatment with 0.1% DMSO alone was used as the cell viability activity control. The relative standard deviation of the DMSO control was <5%.

3T3-L1 Mouse Adipocytes = experiment: Free fatty acid levels in cultured mouse adipocytes stimulated with isoproterenol; type: cell-based; settings: peptide 10 μM, 20-22 hours then 3 hours with 1 nM isoproterenol; relative to isoproterenol treated cells
Procedure: The effect of the peptides on fatty acid metabolism can be assessed using an assay of free fatty acid levels in cultured cells such as mouse adipocytes. Peptides were initially prepared as 10 mM stock in DMSO and used at a final concentration of 10 μM (0.1% DMSO). […] Mouse 3T3-L1 cells purchased from ZenBio were seeded at 3,000 cells per well in 96-well plates in Pre-adipocyte Medium (Zen-Bio) and grown to confluence at 37° C. in a humidified atmosphere of 5% CO2/95% air. Two days after confluence, cells were placed in Adipocyte Differentiation Medium (Zen-Bio) and cultured for three additional days at 37° C. in a humidified atmosphere of 5% CO2/95% air. The culture media was then replaced with Adipocyte Maintenance Medium (Zen-Bio) and the cells maintained for an additional 9-12 days at 37° C. in a humidified atmosphere of 5% CO2/95% air with partial medium replacement every other day. Following 12-15 days of differentiation, test peptides were added at a final concentration of 10 μM in 0.1% DMSO and incubated for 20-22 hours in Adipocyte Maintenance Medium at 37° C. in a humidified atmosphere of 5% CO2/95% air. After 20-22 hours, 1 nM isoproterenol was added to all wells except untreated controls and test peptides were replenished. Insulin at 100 nM was added to control wells. Cells were incubated for 3 hours in Assay Buffer (Zen-Bio) at 37° C. in a humidified atmosphere of 5% CO2/95% air. Free fatty acid concentrations in the media were determined using a Free Fatty Acid Assay kit (Zen-Bio) according to the manufacturer's instructions using a Cytation 3 plate reader at 540 nm (BioTek, Winooski, VT). Absorbance values were corrected for untreated background and expressed relative to isoproterenol treated cells. Treatment with isoproterenol (1 nM) alone was used as the free fatty acid level stimulatory control. The relative standard deviation of the isoproterenol control was <10%. […] Free fatty acid levels for insulin (100 nM) treatment were <5% of the isoproterenol control value.

[2] = system: SH-SY5Y Neuroblastoma Cells Exposed to Staurosporine; experiment: ATP levels in cells exposed to staurosporine (CellTiter-Glo); type: cell-based, human; settings: peptide 10 μM plus staurosporine (40 μM), 18-20 hours; <100% cytoprotective, >100% synergistic
Procedure: Peptides were initially prepared as 10 mM stock in DMSO and tested at a final concentration of 10 μM (0.1% DMSO). […] […] CellTiter-Glo® Assay kit was purchased from Promega. SH-SY5Y human neuroblastoma cell line was purchased from American Type Culture Collection (Manassas, VA) and licensed from Memorial Sloan-Kettering Cancer Center (New York, NY). SH-SY5Y cells were grown in DMEM/F12 medium supplemented with 10% FBS with 100 IU/ml penicillin and 100 μg/ml streptomycin. Cultures were maintained at 37° C. in a humidified atmosphere of 5% CO2/95% air. SH-SY5Y cells were seeded at 30,000 cells per well on 96-well plates. […] ATP levels were determined using a CellTiter-Glo Assay kit (Promega) according to the manufacturer's instructions. Luminescence for each sample well on the plate was measured using a Cytation 3 plate reader (BioTek, Winooski, VT). […] A value less than 100% is indicative of a cytoprotective effect, while a value greater than 100% is indicative of a synergistic effect on viability.

Compound: CC[C@H](C)[C@H](NC(=O)[C@H](CC(C)C)NC(=O)[C@H](CC(C)C)NC(=O)[C@@H](N)CCSC)C(=O)N[C@@H](CC(C)C)C(=O)N[C@H](C(=O)N[C@@H](CC(C)C)C(=O)N[C@H](C(=O)N[C@@H](CC(C)C)C(=O)N[C@H](C)C(=O)O)C(C)C)[C@@H](C)O [compound 3] (H-MLLILTLVL[dA]-OH; N-terminus and C-terminus assumed)
- Caspase 3/7 Activity, Percent of Control Activity [1]: 90.9%
- PrestoBlue cell viability, Percent of Control Activity (A172 Cells): 96.5%
- Free Fatty Acid Levels, MEAN %ISO (3T3-L1 Mouse Adipocytes): 57.7%
- Percent of ATP Reduction Induced by Control [2]: 102.7%

Compound: CC[C@H](C)[C@H](NC(=O)[C@H](CC(C)C)NC(=O)[C@H](C)NC(=O)[C@@H](N)CCSC)C(=O)N[C@@H](CC(C)C)C(=O)N[C@H](C(=O)N[C@@H](CC(C)C)C(=O)N[C@H](C(=O)N[C@@H](CC(C)C)C(=O)N[C@H](C)C(=O)O)C(C)C)[C@@H](C)O [compound 4] (H-MALILTLVL[dA]-OH; N-terminus and C-terminus assumed)
- Caspase 3/7 Activity, Percent of Control Activity [1]: 96.4%
- PrestoBlue cell viability, Percent of Control Activity (A172 Cells): 99.7%
- Free Fatty Acid Levels, MEAN %ISO (3T3-L1 Mouse Adipocytes): 71.3%
- Percent of ATP Reduction Induced by Control [2]: 94.0%

Compound: CC[C@H](C)[C@H](NC(=O)[C@H](CC(C)C)NC(=O)[C@H](C)NC(=O)[C@@H](N)CCSC)C(=O)N[C@@H](CC(=O)O)C(=O)N[C@H](C(=O)N[C@@H](CC(C)C)C(=O)N[C@H](C(=O)N[C@@H](CC(C)C)C(=O)N[C@H](C)C(=O)O)C(C)C)[C@@H](C)O [compound 5] (H-MALIDTLVL[dA]-OH; N-terminus and C-terminus assumed)
- Caspase 3/7 Activity, Percent of Control Activity [1]: 76.2%
- PrestoBlue cell viability, Percent of Control Activity (A172 Cells): 97.0%
- Free Fatty Acid Levels, MEAN %ISO (3T3-L1 Mouse Adipocytes): 95.7%
- Percent of ATP Reduction Induced by Control [2]: 106.1%

Compound: CC[C@H](C)[C@H](NC(=O)[C@@H](NC(=O)CNC(=O)[C@@H](C)NC(=O)[C@@H](N)CCSC)C(C)C)C(=O)N[C@@H](CCCNC(=N)N)C(=O)NCC(=O)N[C@H](C(=O)N[C@@H](CC(C)C)C(=O)N[C@H](C(=O)N[C@@H](CC(C)C)C(=O)O)C(C)C)C(C)C [compound 9] (H-M[dA]GVIRGVLVL-OH; N-terminus and C-terminus assumed)
- Caspase 3/7 Activity, Percent of Control Activity [1]: 89.3%
- PrestoBlue cell viability, Percent of Control Activity (A172 Cells): 94.8%
- Free Fatty Acid Levels, MEAN %ISO (3T3-L1 Mouse Adipocytes): 88.2%
- Percent of ATP Reduction Induced by Control [2]: 95.1%

Compound: CC[C@H](C)[C@H](NC(=O)[C@@H](NC(=O)CNC(=O)[C@@H](C)NC(=O)[C@@H](N)CCSC)C(C)C)C(=O)N[C@@H](CCCNC(=N)N)C(=O)N[C@@H](C)C(=O)N[C@H](C(=O)N[C@@H](CC(C)C)C(=O)N[C@H](C(=O)N[C@@H](CC(C)C)C(=O)O)C(C)C)C(C)C [compound 10] (H-M[dA]GVIRAVLVL-OH; N-terminus and C-terminus assumed)
- Caspase 3/7 Activity, Percent of Control Activity [1]: 82.6%
- PrestoBlue cell viability, Percent of Control Activity (A172 Cells): 99.6%
- Free Fatty Acid Levels, MEAN %ISO (3T3-L1 Mouse Adipocytes): 96.4%
- Percent of ATP Reduction Induced by Control [2]: 90.4%

Compound: CC[C@H](C)[C@H](NC(=O)[C@H](Cc1c[nH]c2ccccc12)NC(=O)[C@H](CCC(N)=O)NC(=O)[C@@H](N)CCCNC(=N)N)C(=O)N[C@@H](CC(C)C)C(=O)N[C@@H](Cc1c[nH]cn1)C(=O)N[C@@H](CC(N)=O)C(=O)N[C@H](C)C(=O)NCC(=O)N[C@@H](CCSC)C(=O)N[C@@H](CO)C(=O)N[C@@H](Cc1ccccc1)C(=O)N[C@@H](Cc1ccccc1)C(=O)N[C@@H](CS)C(=O)O [compound 14] (H-RQWILHN[dA]GMSFFC-OH; N-terminus and C-terminus assumed)
- Caspase 3/7 Activity, Percent of Control Activity [1]: 107.4%
- PrestoBlue cell viability, Percent of Control Activity (A172 Cells): 97.5%
- Free Fatty Acid Levels, MEAN %ISO (3T3-L1 Mouse Adipocytes): 70.4%
- Percent of ATP Reduction Induced by Control [2]: 93.6%

Compound: CSCC[C@H](NC(=O)CNC(=O)[C@@H](C)NC(=O)[C@H](CC(N)=O)NC(=O)[C@H](Cc1c[nH]cn1)NC(=O)[C@H](CC(C)C)NC(=O)[C@H](CCC(=O)O)NC(=O)[C@H](Cc1c[nH]c2ccccc12)NC(=O)[C@H](CCC(N)=O)NC(=O)[C@@H](N)CCCNC(=N)N)C(=O)N[C@@H](CO)C(=O)N[C@@H](C)C(=O)N[C@@H](Cc1ccccc1)C(=O)N[C@@H](CS)C(=O)O [compound 15] (H-RQWELHN[dA]GMSAFC-OH; N-terminus and C-terminus assumed)
- Caspase 3/7 Activity, Percent of Control Activity [1]: 114.6%
- PrestoBlue cell viability, Percent of Control Activity (A172 Cells): 98.8%
- Free Fatty Acid Levels, MEAN %ISO (3T3-L1 Mouse Adipocytes): 54.5%
- Percent of ATP Reduction Induced by Control [2]: 88.4%

Compound: CSCC[C@H](NC(=O)[C@H](CCCNC(=N)N)NC(=O)[C@H](CCCNC(=N)N)NC(=O)[C@@H](N)CCCNC(=N)N)C(=O)N[C@@H](Cc1ccccc1)C(=O)N[C@@H](CO)C(=O)N[C@@H](CS)C(=O)N[C@@H](Cc1ccc(O)cc1)C(=O)N[C@H](C)C(=O)N[C@@H](Cc1ccc(O)cc1)C(=O)O [compound 19] (H-RRRMFSCY[dA]Y-OH; N-terminus and C-terminus assumed)
- Caspase 3/7 Activity, Percent of Control Activity [1]: 93.7%
- PrestoBlue cell viability, Percent of Control Activity (A172 Cells): 98.8%
- Free Fatty Acid Levels, MEAN %ISO (3T3-L1 Mouse Adipocytes): 64.0%
- Percent of ATP Reduction Induced by Control [2]: 99.5%

Compound: CCCC[C@H](NC(=O)[C@H](CCCNC(=N)N)NC(=O)[C@H](CCCNC(=N)N)NC(=O)[C@@H](N)CCCNC(=N)N)C(=O)N[C@@H](Cc1ccccc1)C(=O)N[C@@H](CO)C(=O)N[C@@H](CS)C(=O)N[C@@H](Cc1ccc(O)cc1)C(=O)N[C@H](C)C(=O)N[C@@H](Cc1ccc(O)cc1)C(=O)O [compound 20] (H-RRR[Nle]FSCY[dA]Y-OH; N-terminus and C-terminus assumed)
- Caspase 3/7 Activity, Percent of Control Activity [1]: 85.4%
- PrestoBlue cell viability, Percent of Control Activity (A172 Cells): 104.7%
- Free Fatty Acid Levels, MEAN %ISO (3T3-L1 Mouse Adipocytes): 65.6%
- Percent of ATP Reduction Induced by Control [2]: 101.4%
